# Assay results as given in patent US8883792B2, “Substituted isoquinoline derivative” (D. Western Therapeutics Institute, Inc., priority 2010, dated 2014).
# Counter-ions that a name gives are not always drawn.
# Assays:
# [1] = system: spontaneously hypertensive rats (SHR/Izm); assay: Blood pressure lowering effect in spontaneously hypertensive rats; type: in vivo; details: Rattus norvegicus, ip, male SHR/Izm rats, intraperitoneal, measured over time, read-out: lowered the systolic blood pressures by up to, compared with the value before administration
# Procedure: The compound of the present invention was intraperitoneally administered to spontaneously hypertensive rats (SHR/Izm, sex: male, 4 to 6 rats per group) and evaluated for its blood pressure lowering effect. The compounds of Examples 5, 23, 25, 35, 36, 53, 58, 83, 84, 86, 87, and 90 were used as test compounds.
# Each test compound was dissolved in saline and diluted to prepare a test compound solution with a predetermined concentration.
# The test compound was intraperitoneally administered at a dose of 10 mg/kg to the animals, and their blood pressures and pulse rates were measured over time using Softron Indirect Blood Pressure Meter BP-98A.
# [2] = system: rabbits (New Zealand White); assay: Ocular hypotensive effect in rabbits; type: in vivo, rabbit; details: male New Zealand White rabbits, 0.04 mL eye drop, concentration of 1% (w/v) or lower, maximum ocular hypotensive rate vs vehicle-treated contralateral eye
# Procedure, shortened: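 Male New Zealand White rabbits (3–6 per group) received 0.04 mL compound solution (pH 7.0 phosphate/NaCl vehicle or 2% boric acid) in one eye and vehicle in the other. IOP measured by rebound tonometer before dosing and over time; ocular hypotensive rate taken as treated-eye IOP relative to vehicle-eye IOP.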
SMILES,inhibition in vivo at 10 mg/kg [1] [%],Ocular hypotensive activity [2]
"C[C@H](CNCCc1ccccc1)NS(=O)(=O)c1ccc2cnccc2c1 [Example 23, (R)—N-{1-(phenethylamino)propan-2-yl}isoquinoline-6-sulfonamide dihydrochloride]",≥ 30,++ (maximum ocular hypotensive rate of 15% or more)
"C[C@H](CNCCc1ccc(F)cc1)NS(=O)(=O)c1ccc2cnccc2c1.Cl [Example 53, (R)—N-{1-(4-fluorophenethylamino)propan-2-yl}isoquinoline-6-sulfonamide hydrochloride]",≥ 30,++ (maximum ocular hypotensive rate of 15% or more)
"C[C@H](CNC[C@H](C)c1ccccc1)NS(=O)(=O)c1ccc2cnccc2c1 [Example 25, N—[(R)-1-{(R)-2-phenylpropylamino}propan-2-yl]isoquinoline-6-sulfonamide dihydrochloride]",≥ 30,++ (maximum ocular hypotensive rate of 15% or more)
"CCCCNC[C@@H](C)NS(=O)(=O)c1ccc2cnccc2c1 [Example 5, (R)—N-{1-(butylamino)propan-2-yl}isoquinoline-6-sulfonamide dihydrochloride]",≤ 16,++ (maximum ocular hypotensive rate of 15% or more)
"C[C@H](CNC[C@@H](O)c1ccccc1)NS(=O)(=O)c1ccc2cnccc2c1.Cl [Example 83, N—[(R)-1-{(S)-2-hydroxy-2-phenylethylamino}propan-2-yl]isoquinoline-6-sulfonamide hydrochloride]",≥ 30,++ (maximum ocular hypotensive rate of 15% or more)
"C[C@H](CNC[C@@](C)(O)c1ccccc1)NS(=O)(=O)c1ccc2cnccc2c1.Cl [Example 86, N—[(R)-1-{(S)-2-hydroxy-2-phenylpropylamino}propan-2-yl]isoquinoline-6-sulfonamide hydrochloride]",≥ 30,++ (maximum ocular hypotensive rate of 15% or more)
"C[C@H](CNCCCCc1ccccc1)NS(=O)(=O)c1ccc2cnccc2c1 [Example 35, (R)—N-{1-(4-phenylbutylamino)propan-2-yl}isoquinoline-6-sulfonamide dihydrochloride]",≤ 20,++ (maximum ocular hypotensive rate of 15% or more)
"C[C@H](CNC[C@@H](O)c1ccc(F)cc1)NS(=O)(=O)c1ccc2cnccc2c1.Cl [Example 84, N—[(R)-1-{(S)-2-(4-fluorophenyl)-2-hydroxyethylamino}propan-2-yl]isoquinoline-6-sulfonamide hydrochloride]",≤ 20,++ (maximum ocular hypotensive rate of 15% or more)
"C[C@H](CNC[C@@H](O)c1ccsc1)NS(=O)(=O)c1ccc2cnccc2c1.Cl [Example 90, N—[(R)-1-{(S)-2-hydroxy-2-(thiophen-3-yl)ethylamino}propan-2-yl]isoquinoline-6-sulfonamide hydrochloride]",≤ 20,++ (maximum ocular hypotensive rate of 15% or more)
"Cc1ccc(CCNC[C@@H](C)NS(=O)(=O)c2ccc3cnccc3c2)cc1.Cl [Example 58, (R)—N-{1-(4-methylphenethylamino)propan-2-yl}isoquinoline-6-sulfonamide hydrochloride]",≥ 30,++ (maximum ocular hypotensive rate of 15% or more)
"C[C@H](CNC[C@H](O)c1ccccc1)NS(=O)(=O)c1ccc2cnccc2c1.Cl [Example 87, N—[(R)-1-{(R)-2-hydroxy-2-phenylethylamino}propan-2-yl]isoquinoline-6-sulfonamide hydrochloride]",≤ 20,++ (maximum ocular hypotensive rate of 15% or more)
"C[C@H](CNCCc1c[nH]c2ccccc12)NS(=O)(=O)c1ccc2cnccc2c1.Cl [Example 36, (R)—N-[1-{2-(1H-indol-3-yl)ethylamino}propan-2-yl]isoquinoline-6-sulfonamide hydrochloride]",≥ 30,++ (maximum ocular hypotensive rate of 15% or more)
"CNC(CCc1ccccc1)C[C@@H](C)NS(=O)(=O)c1ccc2cnccc2c1 (stereo partly drawn) [Example 120, N-{(2R)-4-(methylamino)-6-phenylhexan-2-yl}isoquinoline-6-sulfonamide dihydrochloride]",,++ (maximum ocular hypotensive rate of 15% or more)
